In PubChem BioAssay (NCI):
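Dose response: 5 concentrations. Exposure: 48 h. Format: 96-well plates. Endpoint: linear interpolation; highest concentration if not reached. Here, GI50 denotes the concentration required for 50% inhibition of growth. Definition used: TGI = concentration required for complete inhibition of growth.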 Where a SMILES comes first, the peptide text is derived from it. [ ]: non-standard residue; d: D form. Phe(4-Cl) = N[CH](Cc1ccc(Cl)cc1)C(=O)O

Legend:
Assay in all cases: NCI tumour cell line growth inhibition, 48 h
HS 578T breast = test system: HS 578T breast
DLD-1 colon = test system: DLD-1 colon
M19-MEL melanoma = test system: M19-MEL melanoma
LXFL 529 NSCLC = test system: LXFL 529 NSCLC
DMS 114 small cell lung = test system: DMS 114 small cell lung
HOP-18 NSCLC = test system: HOP-18 NSCLC
SNB-78 CNS = test system: SNB-78 CNS
RXF-631 renal = test system: RXF-631 renal
MDA-N = test system: MDA-N

Structure (SMILES) | GI50 (HS 578T breast) [µM] | TGI (HS 578T breast) [µM] | TGI (DLD-1 colon) [µM] | TGI (M19-MEL melanoma) [µM] | TGI (LXFL 529 NSCLC) [µM] | TGI (SNB-78 CNS) [µM] | other results
Nc1ncc(-c2cnn(CCO)c2)c2scc(-c3ccc(NC(=O)Nc4cccc(F)c4)cc3)c12 | 0.273 | 3.02 |  |  |  |  | 
Nc1ccc(/C=C/c2ccnc3ccccc23)cc1 |  |  | > 100 | 90 | 58.7 |  | TGI (DMS 114 small cell lung): 45.8 µM
COC(=O)Nc1nc2ccc(Oc3ccc(NC(=O)Nc4ccccc4)cc3)cc2[nH]1 | 0.0921 | 4.45 |  |  |  |  | 
COC(=O)c1cccc2cccc(C(=O)Nc3ccc(C)cc3C)c12 |  |  | > 100 | > 100 | > 100 | > 100 | TGI (HOP-18 NSCLC): > 100 µM; TGI (RXF-631 renal): > 100 µM; TGI (DMS 114 small cell lung): > 100 µM
NCCCC[C@@H]1NC(=O)[C@H]2CCCN2C(=O)[C@H](Cc2ccccc2)NC(=O)[C@H](Cc2ccccc2)CNC1=O | > 100 | > 100 |  |  |  |  | 
Cn1cc(C(=O)c2ccccc2)ccc1=O |  |  | > 100 | > 100 | > 100 | > 100 | TGI (DMS 114 small cell lung): > 100 µM
COc1cc(OC(=O)c2c(O)cc(O)c(O)c2C)cc(C)c1C(=O)Oc1cc(C)c(C(=O)O)c(O)c1 |  |  | > 100 | > 100 | > 100 | > 100 | TGI (HOP-18 NSCLC): > 100 µM; TGI (RXF-631 renal): > 100 µM; TGI (DMS 114 small cell lung): > 100 µM
CC1=C2C(=O)O[C@@H](c3ccoc3)[C@]2(C)CCC1 |  |  | > 100 | > 100 | > 100 | > 100 | TGI (HOP-18 NSCLC): > 100 µM; TGI (DMS 114 small cell lung): > 100 µM
Cc1ccc2nc3c(C(=O)NCCN(C)C)cccc3nc2c1 |  |  |  | 7.29 | > 47.1 | 41.1 | TGI (HOP-18 NSCLC): > 87.3 µM; TGI (DMS 114 small cell lung): 11.6 µM
CCN1C(=O)CNc2ncc(-c3ccc(-c4ncn[nH]4)nc3C)nc21 | 0.111 | 0.526 |  |  |  |  | 
CCN(CC)c1sc(N(CC)CC)c2c1SSSSS2 | 2.75 | 23.2 |  |  |  |  | 
Fc1cc(F)c(COc2cc(Cn3cnc4c(Cl)nc(Cl)nc43)ccc2C23CC4CC(CC(C4)C2)C3)cc1F | 22.9 | 60.9 |  |  |  |  | 
Cc1ccc(/C(=C/C=C(C#N)C#N)Sc2ccc(Cl)cc2)cc1 | 14.3 | 58.4 |  |  |  |  | 
NC(=S)N/N=C/c1ccc(OC(=O)COc2ccc(Cl)cc2)cn1 | 2.86 | > 100 |  |  |  |  | 
CCS(=O)(=O)c1ccc(OC)c(Nc2ncc(-c3cccc(C(C)=O)c3)o2)c1 | 5.88 | > 25 |  |  |  |  | 
COC(=O)C(=O)C(C(=O)C(=O)Nc1ccccc1C(N)=O)c1nc2ccc(Cl)cc2[nH]c1=O (stereo unspecified) |  | > 100 |  |  |  |  | TGI (MDA-N): > 100 µM
COc1ccc(C(=O)COc2cccc(/C=C3\COc4ccc5ccccc5c4C3=O)c2)cc1 | 4.93 | > 100 |  |  |  |  | 
Cc1ccccc1N(CCC#N)C1=NN(C(=O)CC(=O)Nc2ccccc2)C(c2ccccc2)C1 (stereo unspecified) |  |  | > 100 | > 100 | > 100 | > 100 | TGI (HOP-18 NSCLC): > 100 µM; TGI (RXF-631 renal): > 100 µM
CCCCCCCCCCCCCC1CCC(CC)N1 (stereo unspecified) |  |  | 28.9 | 10.6 | 32.6 | 30.4 | TGI (HOP-18 NSCLC): 30.9 µM; TGI (DMS 114 small cell lung): 17.4 µM
O=C(Nc1ccc(Cl)cc1)c1cc(-c2ccc(F)cc2)c2sc(=O)[nH]c2n1 | 2.13 | 13.1 |  |  |  |  | 
CC(=O)OC1CC(O)C23COC(O)C1(C)C2CC(O)C1(C)C3C(=O)C(O)C2(C)C(c3ccoc3)CC3OC321 (stereo unspecified) |  |  |  |  |  |  | GI50 (MDA-N): 0.0178 µM; TGI (MDA-N): > 100 µM

Structure (SMILES) | GI50 (HS 578T breast) [µM] | TGI (HS 578T breast) [µM] | TGI (DLD-1 colon) [µM] | TGI (M19-MEL melanoma) [µM] | TGI (LXFL 529 NSCLC) [µM] | TGI (SNB-78 CNS) [µM] | other results
O=c1cccccc1NCCCNc1cccccc1=O |  |  |  | > 100 | > 100 | > 100 | TGI (RXF-631 renal): > 100 µM; TGI (DMS 114 small cell lung): > 100 µM
CCN(CC)c1ccc(C(=N)c2ccc(N(CC)CC)cc2)cc1 | 0.59 | 2.39 |  |  |  |  | 
CC[O-].CC[O-].O=C1c2ccccc2C(=O)c2c(O)ccc([O-])c21.O=C1c2ccccc2C(=O)c2c(O)ccc([O-])c21.[Ti+4] |  |  | > 100 | 73.4 | > 100 | > 100 | GI50 (HOP-18 NSCLC): 74.4 µM; TGI (HOP-18 NSCLC): > 100 µM; TGI (DMS 114 small cell lung): > 100 µM
CCC#CC[C@H]1C/C=C2/C(=O)C=C[C@@H]2C/C=C\CCCC(=O)O1 | 1.96 | 14.8 |  |  |  |  | 
COc1c2c(cc3nc4ccccc4nc13)CCC(C(C)(C)O)C2 (stereo unspecified) |  |  | > 100 | > 100 | > 100 | > 100 | TGI (HOP-18 NSCLC): > 100 µM
COc1ccc2c(c1)C(=O)c1c-2n(CCCn2ccnc2)c(=O)c2ccccc12 | 1.49 | 17.8 |  |  |  |  | 
Cc1ccc(C(=NN=C(N)N)c2ccc(C)cc2)cc1 | 0.424 | 3.69 |  |  |  |  | 
O=C(O)CN(c1ccccc1)S(=O)(=O)c1ccccc1[N+](=O)[O-] |  |  | > 100 | > 100 | > 100 |  | TGI (HOP-18 NSCLC): > 100 µM; TGI (RXF-631 renal): > 100 µM
N#Cc1nc(C2OC(COC(=O)c3ccccc3)C(OC(=O)c3ccccc3)C2OC(=O)c2ccccc2)oc1N (stereo unspecified) |  |  | > 100 | > 100 |  | > 100 | TGI (HOP-18 NSCLC): > 100 µM; TGI (DMS 114 small cell lung): > 100 µM
CC(C)c1ccc(C(=O)Nc2sc3c(c2C(N)=O)CCC(=O)C3)cc1 | 0.534 | 5.27 |  |  |  |  | 
COc1ccc(C(C)c2cc3c(cc2OC)OCO3)cc1 (stereo unspecified) |  |  | > 100 | > 100 | > 42.7 | > 31.6 | TGI (HOP-18 NSCLC): > 100 µM; TGI (DMS 114 small cell lung): 2.77 µM
Cc1cn2c(/C=C3/C(=O)N(C)c4ccccc43)c(C)nc2s1 | 9.59 | 50.4 |  |  |  |  | 
Clc1nc(Cl)c2ncn(Cc3cccc(COc4cccc(OCc5cccc(Cn6cnc7c(Cl)nc(Cl)nc76)c5)c4)c3)c2n1 | > 100 | > 100 |  |  |  |  | 
CC12CCCC(O)C1CCC1=CC3(CCC12)SCCS3 (stereo unspecified) |  |  |  |  |  |  | TGI (MDA-N): > 10 µM
CC(O)C(NC(=O)C(Cc1ccccc1)NC(=O)C(NC(=O)C(CCCCN)NC(=O)C(Cc1c[nH]c2ccccc12)NC(=O)C(Cc1ccc(O)cc1)NC(=O)C(Cc1ccc(Cl)cc1)NC(=O)C(N)Cc1ccccc1)C(C)O)C(N)=O (stereo unspecified) (H-F[Phe(4-Cl)]YWKTFT-NH2; configuration not given here) |  |  | 59.5 | 40.2 | 39.4 | 61 | TGI (RXF-631 renal): 42.4 µM; TGI (DMS 114 small cell lung): 37.8 µM
CCN(CC)CCCC(C)Nc1c(C)cnc2cc(Cl)c(C)cc12 (stereo unspecified) | 19.1 | 45.2 |  |  |  |  | 
O=C1NC(=O)c2ccc([N+](=O)[O-])c3cccc1c23 |  | 61 |  |  |  |  | TGI (MDA-N): 26.8 µM
NC(N)=NCCCn1c2c(c3ccccc3c1=O)C(=O)c1ccccc1-2 | 2.67 | 25.7 |  |  |  |  | 
CCOC(=O)Sc1ncnc2nc[nH]c12 | 13.8 | > 100 |  |  |  |  | 
CC/C=C\C[C@@H]1C/C=C2/C(=O)C=C[C@H]2C/C=C\CCCC(=O)O1 | 2.84 | 9.11 |  |  |  |  | 
